Source: ChEMBL document CHEMBL1136333, “A novel series of histone deacetylase inhibitors incorporating hetero aromatic ring systems as connection units” (Bioorg Med Chem Lett, 2003)
pIC50: −log10 of the molar value.

Legend:
[1] = cells; format: functional; conditions: Homo sapiens, MDA435
[2] = molecular target: Histone deacetylase (HDAC1 and HDAC2) (Homo sapiens, UniProt Q13547+Q92769); experiment: Inhibitory activity against histone deacetylase (HDAC1 and HDAC2) isolated from K562 erythroleukemia cells; format: cell-based
[3] = system: HT-1080; experiment: Antiproliferative activity against human HT1080 fibrosarcoma cell line at a dose of 50 uM; format: functional
[4] = system: HT-1080; experiment: Antiproliferative activity against human HT1080 fibrosarcoma cell line; format: functional, cell-based
[5] = Antiproliferative activity against human MDA-435 breast carcinoma cell line at a dose of 50 uM; format: functional

| Compound | pIC50 [1] | IC50 [2] | pIC50 [4] | pIC50 [2] | inhibition at 50 µM [3] | inhibition at 50 µM [5] |
| --- | --- | --- | --- | --- | --- | --- |
| O=C(CCCCCCc1nc(-c2ccc(OC(F)(F)F)cc2)cs1)NO | 5.69 | 0.074 µM |  |  | 100% |  |
| COc1ccc(-c2cnc(CCCCCCC(=O)NO)o2)cc1 | 5.60 | 0.0021 µM | 6.51 |  |  |  |
| O=C(CCCCCCc1cnc(-c2ccc(-c3ccccc3)cc2)o1)NO | 4.01 | 0.012 µM | 4.82 |  |  |  |
| O=C(CCCCCCc1cnc(-c2ccc(OC(F)(F)F)cc2)o1)NO | 4.69 | 0.089 µM | 5.29 |  |  |  |
| O=C(CCCCCCc1cnc(-c2ccc(Br)cc2)o1)NO |  | 0.0044 µM | 4.57 |  |  | 97% |
| O=C(CCCCCCc1nc(-c2ccc(-c3ccccc3)cc2)cs1)NO | 5.71 | 0.011 µM | 5.88 |  |  |  |
| O=C(CCCCCCc1nc(-c2ccc3ccccc3c2)cs1)NO | 6.07 | 0.0043 µM | 5.62 |  |  |  |
| CNC(=O)C(=O)CCCCCCc1cnc(-c2ccccc2)s1 |  | 0.047 µM |  |  |  |  |
| O=C(CCCCCCc1ccc(-c2ccccc2)cc1)NO |  | 0.058 µM |  |  |  |  |
| O=C(CCCCCCc1ncc(-c2ccc(-c3ccc(Cl)cc3)cc2)o1)NO | 6.02 | 0.0068 µM | 6.18 |  |  |  |
| COc1ccc(-c2csc(CCCCCCC(=O)NO)n2)cc1 | 5.53 | 0.0025 µM | 5.44 |  |  |  |

Further lines, with some results ahead:

| pIC50 [1] | IC50 [2] | pIC50 [4] | pIC50 [2] | Compound | inhibition at 50 µM [3] | inhibition at 50 µM [5] |
| --- | --- | --- | --- | --- | --- | --- |
|  | 0.03 µM |  |  | CNC(=O)C(=O)CCCCCCc1cnc(-c2ccc(Br)cc2)o1 |  |  |
| 5.09 | 0.0085 µM | 5.25 |  | O=C(CCCCCCc1nc(-c2ccc(Br)cc2)cs1)NO |  |  |
|  |  |  | 6.00 | O=C(CCCCCCNC(=O)c1ccccc1)NO |  |  |
|  | 0.019 µM | 5.29 |  | O=C(CCCCCCc1nc(-c2ccccc2)cs1)NO |  | 99.7% |
| 5.17 | 0.0027 µM | 5.11 |  | O=C(CCCCCCc1ncc(-c2ccc(Br)cc2)o1)NO |  |  |
| 5.66 | 0.0098 µM | 5.08 |  | O=C(CCCCCCc1ncc(-c2ccccc2)o1)NO |  |  |
|  | 0.0058 µM | 5.00 |  | O=C(CCCCCCc1nc(-c2cccc(Br)c2)cs1)NO |  | 98.6% |
| 5.54 | 0.0043 µM | 5.70 |  | COc1cccc(OC)c1-c1csc(CCCCCCC(=O)NO)n1 |  |  |
| 6.07 | 0.042 µM | 5.62 |  | O=C(CCCCCCc1nc(-c2ccc(C(F)(F)F)cc2)cs1)NO |  |  |
|  | 0.011 µM |  |  | CNC(=O)C(=O)CCCCCCc1ncc(-c2ccc(OC)cc2)o1 |  |  |
|  | 0.33 µM |  |  | O=C(CCCCCCOc1ccccc1)NO |  |  |
|  | 0.56 µM |  |  | O=C(CCCCCCCc1ccccc1)NO |  |  |
| 5.10 | 0.023 µM |  |  | O=C(CCCCCCc1cnc(-c2ccc(F)cc2)o1)NO | 76% |  |
|  | 0.013 µM |  |  | O=C(CCCCCCc1cnc(-c2ccccc2)o1)NO | 23% | 6.12% |
|  | 0.021 µM |  |  | CNC(=O)C(=O)CCCCCCc1cnc(-c2ccccc2)o1 |  |  |
